Experiments:
[1] = biological target: T1, rat-derived α2,6-N-sialyltransferase (Rattus norvegicus, UniProt P13721); experiment: Kinetic analysis of α2,6-sialyltransfer reaction to 4MU-4F-LacNAc; assay type: biochemical; conditions: for Activity: α2,6-sialyltransferase
T1 construct: purchased Calbiochem
T1 sequence (P13721 1-403): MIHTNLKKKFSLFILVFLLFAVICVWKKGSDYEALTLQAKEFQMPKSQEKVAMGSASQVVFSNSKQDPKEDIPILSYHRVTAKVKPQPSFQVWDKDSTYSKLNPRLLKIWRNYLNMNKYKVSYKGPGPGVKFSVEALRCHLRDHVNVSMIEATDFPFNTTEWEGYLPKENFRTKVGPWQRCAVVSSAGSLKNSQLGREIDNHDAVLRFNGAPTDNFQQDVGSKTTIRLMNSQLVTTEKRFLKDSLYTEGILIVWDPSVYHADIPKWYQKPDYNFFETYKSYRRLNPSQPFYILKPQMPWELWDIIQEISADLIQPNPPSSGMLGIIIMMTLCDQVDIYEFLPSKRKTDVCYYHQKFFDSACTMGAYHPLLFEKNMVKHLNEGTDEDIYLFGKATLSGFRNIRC
Description: (§1) The mixture was allowed to react at 25° C.
Precisely 120 minutes after initiation of the reaction, the reaction was terminated through addition of 1M NaOH (⅕ times in volume). The reaction mixture was neutralized and diluted with an HPLC eluent, and the diluted product was analyzed through HPLC. […] Note that “1U” was defined as an enzyme amount which realizes formation of sialylated sugar in an amount of 1 μmol/min under the above conditions.
The mixture was allowed to react at 25° C. for 10 minutes.
The enzymatic activity values at respective concentrations are compared.

[2] = biological target: T2, rat-derived α2,3-N-sialyltransferase (Rattus norvegicus, UniProt Q02734); experiment: Kinetic analysis of α2,3-sialyltransfer reaction to 4MU-4F-LacNAc; assay type: biochemical; conditions: for Activity: α2,3-sialyltransferase
T2 construct: purchased Calbiochem
T2 sequence (Q02734 1-374): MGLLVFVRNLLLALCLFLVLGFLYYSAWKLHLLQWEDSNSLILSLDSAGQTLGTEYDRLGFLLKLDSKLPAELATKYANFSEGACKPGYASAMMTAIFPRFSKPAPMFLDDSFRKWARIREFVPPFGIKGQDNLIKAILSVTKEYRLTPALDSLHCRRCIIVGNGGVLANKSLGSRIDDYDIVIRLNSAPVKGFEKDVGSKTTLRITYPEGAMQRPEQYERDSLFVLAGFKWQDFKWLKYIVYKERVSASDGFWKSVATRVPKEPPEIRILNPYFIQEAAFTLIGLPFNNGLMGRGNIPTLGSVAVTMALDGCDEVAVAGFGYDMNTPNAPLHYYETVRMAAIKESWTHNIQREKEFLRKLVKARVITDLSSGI
Description: as §1
Precisely 60 minutes after initiation of the reaction, the reaction was terminated through addition of 80% acetonitrile (4 times in volume) and vigorous stirring. The reaction mixture was diluted, and the diluted product was analyzed through HPLC. […] Note that “1U” was defined as an enzyme amount which realizes sialylated sugar to form in an amount of 1 μmol/min under the above conditions.
The mixture was allowed to react at 25° C. for eight minutes.

[3] = biological target: T2, rat-derived α2,3-N-sialyltransferase; experiment: Enzymatic α2,3-sialyltransfer reaction to pyridylaminated (PA) 4F-galactosylchitobiose, HPLC percent conversion; assay type: biochemical; conditions: 10 μM acceptor, 100 μM CMP-NeuAc, 100 mU/mL enzyme, 25° C.; percent conversion compared with PA galactosylchitobiose
Description: (§2) To a 10 mM HEPES-NaOH buffer (pH 7.5) containing 10 mM manganese chloride, 100 mM sodium chloride, 100 μM CMP-NeuAc, 0.02% (w/v) BSA, and 10 μM pyridylaminated (PA) 4F-galactosylated chitobiose, rat-derived α2,3-N-sialyltransferase (product of Calbiochem) (100 mU/mL-reaction mixture) was added, and the mixture was allowed to react at 25° C. In a similar manner, a similar mixture employing pyridylaminated (PA) galactosylated chitobiose as an acceptor was allowed to react as a control reaction.
An aliquot was sampled from the reaction mixture at hour 2.5 and hour 24 after initiation of the reaction. Finally, the reaction was terminated through addition of 10 mM sodium phosphate (pH 4.3) (9 times in volume) and vigorous stirring. The product was analyzed through HPLC employing a C30-UG-5 column. […] A fraction corresponding to each peak was collected and dried under reduced pressure. […] Mass analysis detected, in the reaction employing pyridylaminated (PA) 4F-galactosylchitobiose, an [M+H]^+ peak (m/z 959.45), thereby confirming formation of compound 17. Also, in the reaction employing pyridylaminated (PA) galactosyl chitobiose, an [M+H]^+ peak (m/z 957.31) was detected, thereby confirming formation of compound 18. […]

[4] = biological target: T1, rat-derived α2,6-N-sialyltransferase; experiment: Enzymatic α2,6-sialyltransfer reaction to pyridylaminated (PA) 4F-galactosylchitobiose, HPLC percent conversion; assay type: biochemical; conditions: 10 μM acceptor, 100 μM CMP-NeuAc, 40 mU/mL enzyme, 25° C.; percent conversion compared with PA galactosylchitobiose
Description: as §2, with “α2,6-N-sialyltransferase” for “α2,3-N-sialyltransferase”, “(40” for “(100”
An aliquot was sampled from the reaction mixture at hour 1, hour 2.5, hour 8, and hour 24 after initiation of the reaction. Finally, the reaction was terminated through addition of a mixture of 0.5M triethylamine-acetic acid (pH 7.3) and acetonitrile (25:75) (19 times in volume) and vigorous stirring. The product was analyzed through HPLC. […] Mass analysis detected an [M+H]^+ peak (m/z 659.74) attributed to compound 19, thereby confirming formation of compound 19. Also, in the control reaction employing UDP-Gal, an [M+H]^+ peak (m/z 657.74) attributed to compound 20 was detected through MALDI-TOF-MS, confirming formation of compound 20. […]

[5] = substrate: CC(=O)NC1C(O)[C@H](O[C@@H]2OC(CO)[C@H](O)[C@H](O)C2O)[C@H](CO)O[C@H]1Oc1ccc2c(C)cc(=O)oc2c1; experiment: purified protein, by the assay type; conditions: 25° C., pH 7.5
[6] = substrate: CC(=O)NC1C(O)[C@H](O[C@@H]2OC(CO)[C@H](F)[C@H](O)C2O)[C@H](CO)O[C@H]1Oc1ccc2c(C)cc(=O)oc2c1; experiment: purified protein, by the assay type; conditions: other: 1/[S]-1/v plotting, 200 μM CMP-NeuAc, 25° C., pH 7.5
[7] = Galactokinase (GalK) activity of the enzyme liquid; assay type: biochemical, E. coli; conditions: galactokinase activity of purified enzyme liquid, method by Takeda et al.
Description: E. coli (JM109 strain) (from Takara Bio) was transformed with a pTrc-galK plasmid (JP-A-2002-335988) in which a gene encoding E. coli-derived GalK has been inserted. The transformed cells were inoculated to a 2×YT medium (100 mL) containing 100 μg/mL ampicillin, followed by shake culturing at 37° C. When the number of the cells reached 1×10^8 cells/mL, isopropyl-p-thiogalactoside (IPTG) was added to the culture so as to adjust the final concentration to 0.2 mM, and shake culture was continued for further eight hours. After completion of culturing, cells were collected through centrifugation (9,000×g, 20 min) and suspended in a buffer (20 mM Tris-HCl (pH 7.5) and 1 mM magnesium chloride) (10 mL). The cells were disrupted through ultrasonication, and the product was centrifuged (20,000×g, 10 min), to thereby remove cell residues.
The thus-produced fraction was employed as an enzyme liquid in the following synthesis reactions. The galactokinase (GalK) activity of the enzyme liquid was determined (Table 1). In the present invention, GalK activity was determined through a method by Takeda et al. (JP-A-2002-335988).

[8] = other: 1/[S]-1/v plotting, 200 μM CMP-NeuAc
[9] = other: rat-derived α2,6-sialyltransferase 40 mU/mL, 10 minutes, 1/[S]-1/v plotting

CC(=O)NC1C(O)[C@H](O[C@@H]2OC(CO)[C@H](F)[C@H](O)C2O)[C@H](CO)O[C@H]1Oc1ccc2c(C)cc(=O)oc2c1 (some centres unmarked) [4MU-4F-LacNAc, 4-methylumbelliferyl 4F—N-acetyllactosamine]
sialyltransferase activity of α2,6-sialyltransferase with respect to acceptor ([1]; compared with 4MU-LacNAc at respective concentrations): clearly decreased | Activity ([1]; acceptor concentration 20 μM): 0.07743 mU/mL | Activity ([1]; acceptor concentration 40 μM): 0.1561 mU/mL | Activity ([1]; acceptor concentration 80 μM): 0.3223 mU/mL | Activity ([1]; acceptor concentration 120 μM): 0.4596 mU/mL | Activity ([1]; acceptor concentration 150 μM): 0.6348 mU/mL | catalytic efficiency of α2,3-sialyltransferase relative to that with respect to 4MU-LacNAc ([2]; compared with 4MU-LacNAc): ≤ 6% | Activity ([2]; acceptor concentration 20 μM): 0.9972 mU/mL | Activity ([2]; acceptor concentration 40 μM): 1.756 mU/mL | Activity ([2]; acceptor concentration 80 μM): 3.214 mU/mL | Activity ([2]; acceptor concentration 150 μM): 4.541 mU/mL

CC(=O)NC1C(O)[C@H](O[C@@H]2OC(CO)[C@H](O)[C@H](O)C2O)[C@H](CO)O[C@H]1Oc1ccc2c(C)cc(=O)oc2c1 (some centres unmarked) [4MU-LacNAc, reference compound]
Activity ([1]; acceptor concentration 20 μM): 0.8800 mU/mL | Activity ([1]; acceptor concentration 40 μM): 1.667 mU/mL | Activity ([1]; acceptor concentration 80 μM): 2.504 mU/mL | Activity ([1]; acceptor concentration 120 μM): 3.734 mU/mL | Activity ([1]; acceptor concentration 150 μM): 4.828 mU/mL | Activity ([2]; acceptor concentration 20 μM): 16.20 mU/mL | Activity ([2]; acceptor concentration 40 μM): 28.50 mU/mL | Activity ([2]; acceptor concentration 80 μM): 45.36 mU/mL | Activity ([2]; acceptor concentration 150 μM): 66.23 mU/mL

CC(=O)NC(CNc1ccccn1)[C@H](O)C(O[C@@H]1OC(CO)[C@@H](O[C@@H]2OC(CO)[C@H](F)[C@H](O)C2O)[C@H](O)C1NC(C)=O)C(O)CO (some centres unmarked) [pyridylaminated (PA) 4F-galactosylchitobiose]
reactivity of α2,3-sialyltransferase [3]: considerably decrease | reactivity of α2,6-sialyltransferase [4]: considerably decrease

B1: rat-derived α2,3-N-sialyltransferase (Rattus norvegicus) (protein)
chain: MGLLVFVRNLLLALCLFLVLGFLYYSAWKLHLLQWEDSNSLILSLDSAGQTLGTEYDRLGFLLKLDSKLPAELATKYANFSEGACKPGYASAMMTAIFPRFSKPAPMFLDDSFRKWARIREFVPPFGIKGQDNLIKAILSVTKEYRLTPALDSLHCRRCIIVGNGGVLANKSLGSRIDDYDIVIRLNSAPVKGFEKDVGSKTTLRITYPEGAMQRPEQYERDSLFVLAGFKWQDFKWLKYIVYKERVSASDGFWKSVATRVPKEPPEIRILNPYFIQEAAFTLIGLPFNNGLMGRGNIPTLGSVAVTMALDGCDEVAVAGFGYDMNTPNAPLHYYETVRMAAIKESWTHNIQREKEFLRKLVKARVITDLSSGI
Km [5, 8]: 129 µM | Vmax [5, 8]: 146.9 nmol/min/mg | Km [6]: 188 µM | Vmax [6]: 12.60 nmol/min/mg

B2: rat-derived α2,6-N-sialyltransferase (Rattus norvegicus) (protein)
chain: MIHTNLKKKFSLFILVFLLFAVICVWKKGSDYEALTLQAKEFQMPKSQEKVAMGSASQVVFSNSKQDPKEDIPILSYHRVTAKVKPQPSFQVWDKDSTYSKLNPRLLKIWRNYLNMNKYKVSYKGPGPGVKFSVEALRCHLRDHVNVSMIEATDFPFNTTEWEGYLPKENFRTKVGPWQRCAVVSSAGSLKNSQLGREIDNHDAVLRFNGAPTDNFQQDVGSKTTIRLMNSQLVTTEKRFLKDSLYTEGILIVWDPSVYHADIPKWYQKPDYNFFETYKSYRRLNPSQPFYILKPQMPWELWDIIQEISADLIQPNPPSSGMLGIIIMMTLCDQVDIYEFLPSKRKTDVCYYHQKFFDSACTMGAYHPLLFEKNMVKHLNEGTDEDIYLFGKATLSGFRNIRC
Km [5, 9]: 217 µM | Vmax [5, 9]: 65.24 nmol/min/mg

B3: GalK: E. coli-derived galactokinase, purified enzyme liquid (protein, UniProt P0A6T3 2-382, looked up)
Galactokinase: SLKEKTQSLFANAFGYPATHTIQAPGRVNLIGEHTDYNDGFVLPCAIDYQTVISCAPRDDRKVRVMAADYENQLDEFSLDAPIVAHENYQWANYVRGVVKHLQLRNNSFGGVDMVISGNVPQGAGLSSSASLEVAVGTVLQQLYHLPLDGAQIALNGQEAENQFVGCNCGIMDQLISALGKKDHALLIDCRSLGTKAVSMPKGVAVVIINSNFKRTLVGSEYNTRREQCETGARFFQQPALRDVTIEEFNAVAHELDPIVAKRVRHILTENARTVEAASALEQGDLKRMGELMAESHASMRDDFEITVPQIDTLVEIVKAVIGDKGGVRMTGGGFGGCIVALIPEELVPAVQQAVAEQYEAKTGIKETFYVCKPSQGAGQC
Enzymatic activity [7]: 23.1 units/mg protein
